Results published in patent US12559784B2 (priority 2023, dated 2026).
Several values for one entry are separate records, joined by “and”; a condition that tells them apart may be missing. Identical values can stand only once. Like-named read-outs stand apart in the source and are kept apart here.

Experiments:
porcine skin = conditions: R 1 and 2
Method: Our initial studies involved using fresh and frozen porcine skin “buttons”. These buttons were punched out of porcine skin (Spear Products, Cooopersburg, PA) using a […] biopsy punch tool. Three different kinds of skin buttons were prepared from fresh porcine skin, frozen porcine skin, and frozen porcine skin with the fatty layer removed. […] The next day, the tubes were taken out and vortexed and 500 μL of the solution was aliquoted into cuvettes to read at three different optical density wavelengths (OD190, OD290, OD300) to evaluate the best response.
Skin Preparation • 1. Thaw 2 pieces of frozen porcine skin • 2. Punch out buttons: 24 buttons in each tube filled with 40 mL PB S-Azide 96-well plate Preparation • 1. Plate layout for dosing:
Procedure • 1. Dose each tissue with 140 μL of test chemical • 2. […] Take out of incubator and vortex pulse 3× • 2. Aliquot 500 μL to cuvette and read results at OD190, OD290, and OD300
There were three readings done at an optical density of 190, 290, and 300 nm to evaluate the best response. […] To address the variable exposure conditions, our next studies involved placing a larger porcine skin section into a holder that exposes only the epidermis side with no potential for test chemical exposure from the backside or through the sides.

phosphatase = format: biochemical, porcine
Method: Our next studies involved applying the test substance (500 μL) directly to the epidermis side of previously frozen porcine skin (Spear Products, Coopersburg, PA) that is placed in a holder that only exposes the epidermis side for 30 minutes, adding phosphate buffered saline (PBS) with added sodium azide (metabolic inhibitor that ensure no viable tissue), then aliquoting into cuvettes to read at an optical density of 300 nm. […] So, at the end of the initial studies described above, almost out of frustration, we tried to probe for released phosphatase activity using p-Nitrophenyl phosphate disodium salt (PNPP; Sigma Aldrich, St. Louis, MO) substrate solution to detect any presence of phosphatase.
Preparation • 1. Thaw 2 pieces of frozen porcine skin • a. Punch out as many skin discs and mount in holders • 2. Label cuvettes (3 for each chemical) Procedure • 1. Add 500 μL of test chemical to holder; incubate at room temperate for 30 minutes • 2. After 30 minutes, add 2 mL of PBS-Azide to both the holder containing the test chemical; forcefully pipette and re-pipette 10 times • 3. From the holder, aliquot 400 μL into 3 cuvettes; forcefully pipette and re-pipette 3 times before dispensing into cuvettes Reading Results • 1. Measure at OD300 for all cuvettes
Skin corrosion by GHS Category 1 dermal corrosive chemicals results in the disintegration of the epidermis into the dermis.

skin = conditions: rabbit, in vivo; cited from earlier work
alkaline phosphatase [1] = assay: Alkaline phosphatase experiment, ninth week: microcentrifuge tubes vs glass vials; format: biochemical; conditions: ethanol alkaline phosphatase 1:100, 4 hours room temperature, 1-hour PNPP
Method: Feb. […] The test chemicals included water, acetic acid, heptanal, dimethylisopropylamine, n-Heptylamine, and N,N-Dimethylbenzylamine. We believe that when tilting the glass vial to mix by pipette/re-pipette, the alkaline phosphatase is sticking to the sides and therefore when the p-Nitrophenyl phosphate disodium salt (PNPP) is added, it immediately detects alkaline phosphatase presence and turns intensely yellow. In addition, by sticking to the side of the vial, since the volume of the test chemical added is low, the chance the test chemical interacting with the alkaline phosphatase might be less, therefore resulting in an intensely yellow enzyme reaction product. This study focused on the two stocks (one from previous experiment and a freshly made one) 1:100 concentration ethanol alkaline phosphatase reaction reagent. […] For the 4 mL vials, 30 μL of the test chemical is added to 300 μL of the alkaline phosphatase reaction reagent and incubated for 4 hours at room temperature.

alkaline phosphatase [2] = format: biochemical
Method: New stocks were made the of the 1:100 alkaline phosphatase reaction reagents.
The conditions included: 1:100 dilution of alkaline phosphatase reaction reagent with two solvents (buffered saline and ethanol), dosing in 0.5 mL microcentrifuge tubes with 20 μL of chemical added to 180 μL of reaction reagent, and incubating with p-Nitrophenyl phosphate disodium salt (PNPP) substrate for 1-hour.

alkaline phosphatase [3] = assay: Alkaline phosphatase experiment, seventh week: 1:100 vs 1:1000 dilution, room temperature vs 37° C.; conditions: 4-hour exposure, 1-hour PNPP
Method: Preparation • 1. Alkaline phosphatase reaction reagent • a. 1:100 • i. PBS: Take 400 μL of AP (1:10) stock solution, add to 3.6 mL PBS. Vortex mix and then invert to mix 10 times • ii. […] Vortex mix and then invert to mix 10 times • b. 1:1000 • i. PBS: Take 400 μL of AP (1:100) stock solution, add to 3.6 mL PBS. Vortex mix and then invert to mix 10 times • ii. […] Vortex mix and then invert to mix 10 times • 2. Prepare 0.5 mL microcentrifuge tubes for dosing • a. One set for room temperature, one set for 37° C. • 3. Prepare 96-well plates for PNPP reading (3 wells for each test chemical) • a. Aliquot with 200 μL PNPP Conditions • 1. 1:100 in PBS at RT • 2. […] 1:100 in PBS at 37° C. • 4. […] 1:1000 in PBS at RT • 6. […] 1:1000 in PBS at 37° C. • 8. […] Procedure • 1. In each microcentrifuge tube for each condition, add 180 μL of the corresponding AP reaction reagent • 2. Add 20 μL of the test chemical to each microcentrifuge tube • 3. Incubate for 4 hours (one set at room temperature; one set at 37° C.) • 4. To prepared 96-well plates with 200 μL PNPP aliquoted, add 20 μL of each microcentrifuge tube to the corresponding well • 5.

alkaline phosphatase [4] = format: biochemical; conditions: PBS; 18 hours room temperature, PNPP 1 hour
Description: Our next study compared different dilutions of the original alkaline phosphatase source (1:10 [Activity: 1,000 units] and 1:100 [100 units]) and two sources of alkaline phosphatase, both purchased from Sigma Aldrich (St. Louis, MO). […] The five conditions for this study included original alkaline phosphatase (1:1), original alkaline phosphatase (1:10), original alkaline phosphatase (1:100), new alkaline phosphatase (1:1), and the blanks (phosphate buffered saline (PBS)). […] The two controls contained ink to determine if there would be any background effect.
Preparation • 1. Alkaline phosphatase reaction reagent • a. Original AP • i. Add 1 mL PBS into AP vial, pipette re-pipette 10 times, then invert with cap on, to mix well. Take this 1 mL and add to 50 mL conical tube filled with 40 mL PBS. Invert to mix 10 times, vortex mix, let sit 2 minutes, invert to mix again 10 times • ii. Prepare 2 more 50 mL conical tubes • 1. 1:10 • a. […] 1:100 • a. Take 4 mL of solution made above, add to 36 mL PBS. […] New AP • i. Add 400 mg into a 50 mL conical tube filled with 40 mL PBS. Invert to mix 10 times, vortex mix, let sit 2 minutes, invert to mix 10 more times. Check to make sure all suspended. If not, vortex mix and invert until fully suspended. • 2. Prepare 24-well plates • 3. […] Aliquot with 200 μL PNPP Conditions • 1. Old AP • 2. Old AP (1:10) • 3. Old AP (1:100) • 4. New AP • 5. Blank (PBS only) Procedure • 1. 24-well plates • a. Add 1 mL (using P1000, blue tips) of the prepared PBS-AP to the plate (for each condition) • b. Add 100 μL of the test material to the well, mix with the same pipette tip, dispose and repeat for the rest of the test materials • c. Wrap the plate in saran wrap and place into the container • d. […] To the prepared 96-well plate with 200 μL PNPP or PBS, add 20 μL from the 24-well plate • 3. Incubate for 1 hour • 4.

[5] = cited from earlier work
alkaline phosphatase [6] = conditions: 30 μL chemical in 300 μL reagent 1:100, 4 hours room temperature, 3 mL PNPP 1 hour
Method: We changed the test chemical dosage to 30 μL and the alkaline phosphatase reaction reagent to 300 μL, but kept the incubation to 4 hours at room temperature.
PBS: Take 4 mL of AP (1:10) stock solution, add to 36 mL PBS. Vortex mix and then invert to mix 10 times • ii. […] Vortex mix and then invert to mix 10 times • b. PBS (lx) • c. […] Prepare 4 mL glass vials for dosing • a. Four sets • i. R1+ (PBS-AP) • ii. R1− (PBS) • iii. […] Prepare 96-well plates for PNPP reading (3 wells for each test chemical) Procedure • 1. Aliquot 300 μL of each reaction reagent to 4 mL glass vials. • 2. Add 30 μL of the test sample to each 4 mL glass vial. • 3. Incubate at room temperature for 4 hours. • 4. Aliquot 3 mL of PNPP to each 4 mL glass vial, let sit for 1 hr. • a. Aliquot 750 μL into the 4 mL glass vial to stop the reaction. • 5.

[7] = frozen porcine skin with fat layer removed

Structure (SMILES): CCCCCCC=O [Heptanal]
- OD190 (porcine skin; fresh porcine skin, 140 μL test chemical, >3A = outside readable range): 0.486 and 0.365
- OD290 (porcine skin; fresh porcine skin): 0.170 and 0.165
- OD300 (porcine skin; fresh porcine skin): 0.123
- OD190 (porcine skin; [7]): 0.144 and 0.149
- OD290 (porcine skin; [7]): 0.111 and 0.140
- OD300 (porcine skin; [7]): 0.040 and 0.050
- OD190 (porcine skin; frozen porcine skin): 0.362 and 0.371
- OD290 (porcine skin; frozen porcine skin): 0.245 and 0.241
- OD300 (porcine skin; frozen porcine skin): 0.154 and 0.137
- percent of phosphatase measured (optical density compared to the naïve condition), average (phosphatase; average of two readings): 97.2%
- percent of phosphatase measured (optical density compared to the naïve condition) (phosphatase; single readings): 100.0% and 94.4%
- Corrosive (skin): No
- in vivo GHS (skin): Cat. 2
- OD405 readings, glass vials (FIG. 12B) (alkaline phosphatase [1]): 0.804 and 0.852 and 0.901
- OD405 readings, microcentrifuge tubes (FIG. 12B) (alkaline phosphatase [1]): 2.360 and 2.539 and 2.690
- A2 - Results AVG (alkaline phosphatase [2]): 2.408
- A2 - Results R1 (alkaline phosphatase [2]): 2.730
- A2 - Results R3 (alkaline phosphatase [2]): 2.098

Structure (SMILES): CN(C)Cc1ccccc1 [N,N-Dimethylbenzylamine]
- OD405 reading, 1:1000 ethanol solvent condition (FIG. 9B) (alkaline phosphatase [3]): 0.587
- OD405 readings, original alkaline phosphatase 1:100 (FIG. 6D) (alkaline phosphatase [4]): 3.431 and 3.502 and 3.61
- in vivo GHS (skin): Cat. 1C
- solubility with water [5]: mostly insoluble with water
- OD405 readings, buffered saline alkaline phosphatase reaction reagent, glass vials (FIG. 11B) (alkaline phosphatase [6]): 3.360 and 3.238 and 3.273
- OD405 readings, ethanol alkaline phosphatase reaction reagent, glass vials (FIG. 11D) (alkaline phosphatase [6]): 3.429 and 3.249 and 3.164
- A2 - Results AVG (alkaline phosphatase [2]): 0.570
- A2 - Results R1 (alkaline phosphatase [2]): 0.588
- A2 - Results R3 (alkaline phosphatase [2]): 0.539
